Source: patent US10125121B2, “FYN kinase inhibitors” (ROTTAPHARM BIOTECH S.R.L., priority 2015, dated 2018)

How the values were obtained:
[1] = target: FYN (Homo sapiens, UniProt P06241); experiment: Kinase selectivity panel by Cerep
[2] = target: LCK (Homo sapiens, UniProt P06239); experiment: Kinase selectivity panel by Cerep
[3] = test system: mechanical hyperalgesia in meniscal tear osteoarthritis; experiment: Surgically induced meniscal tear osteoarthritis in the rat (MMT); assay type: in vivo
Source text: Male Sprague Dawley rats (Charles River) approximately 350 g body weight were used. Rats were anesthetized using 2.5% isoflurane in oxygen with a flow rate of 1 I per minute. The right hind leg was shaved and surgically prepared. The medial collateral ligament was exposed and transected. The meniscus was grasped with a hemostat and reflected proximally toward the femur. The meniscus was cut through its full thickness at the narrowest point. The connective tissue layer and the skin were closed with coated Vicryl 8-0 and 4-0 silk sutures, respectively. Sham operated animals underwent an identical procedure with the exception that the medial collateral ligament was exposed but not transected. After a recovery period of 2 weeks, mechanical hyperalgesia was evaluated for the following 4 weeks, once a week, before and 90 minutes after drugs administration. Pharmacological oral treatment was performed for 28 days, starting from 14 days after surgery. After 6 weeks from surgery, rats (ten animals per group) were sacrificed and the ipsilateral knee was removed for histopathological analysis.
The maximum possible effect (MPE %) was calculated by the following formula: 100*(Compound−Vehicle)/(Sham−Vehicle)

[4] = target: T1, FLT-3 (Homo sapiens, UniProt P36888); experiment: Kinase selectivity panel by Cerep; conditions: read-out: inhibition of FLT-3
T1 sequence (P36888 27-993): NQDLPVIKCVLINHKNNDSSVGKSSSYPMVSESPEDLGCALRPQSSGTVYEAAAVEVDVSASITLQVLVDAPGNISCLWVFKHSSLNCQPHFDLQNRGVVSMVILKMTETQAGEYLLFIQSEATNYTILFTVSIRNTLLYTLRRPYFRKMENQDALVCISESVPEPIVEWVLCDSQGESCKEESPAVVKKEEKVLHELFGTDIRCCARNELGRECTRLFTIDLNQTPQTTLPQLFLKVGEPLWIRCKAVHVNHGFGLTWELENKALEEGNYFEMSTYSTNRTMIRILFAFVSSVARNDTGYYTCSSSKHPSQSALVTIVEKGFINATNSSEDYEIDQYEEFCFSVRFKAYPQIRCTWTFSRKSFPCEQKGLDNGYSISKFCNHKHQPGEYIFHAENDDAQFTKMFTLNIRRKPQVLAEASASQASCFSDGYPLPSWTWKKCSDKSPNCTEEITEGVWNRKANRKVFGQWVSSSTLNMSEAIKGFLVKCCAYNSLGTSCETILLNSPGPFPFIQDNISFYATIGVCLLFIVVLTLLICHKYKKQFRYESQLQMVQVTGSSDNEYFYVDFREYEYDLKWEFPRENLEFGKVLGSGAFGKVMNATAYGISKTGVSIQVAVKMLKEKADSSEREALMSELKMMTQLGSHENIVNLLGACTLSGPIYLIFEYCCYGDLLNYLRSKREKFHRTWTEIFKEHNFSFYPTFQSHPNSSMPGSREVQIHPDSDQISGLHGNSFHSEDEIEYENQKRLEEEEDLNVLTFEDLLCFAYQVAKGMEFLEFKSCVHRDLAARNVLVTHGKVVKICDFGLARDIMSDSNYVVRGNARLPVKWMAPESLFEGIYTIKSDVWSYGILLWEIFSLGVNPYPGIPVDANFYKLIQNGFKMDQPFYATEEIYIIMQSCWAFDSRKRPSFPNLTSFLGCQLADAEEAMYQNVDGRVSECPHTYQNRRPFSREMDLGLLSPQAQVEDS

[5] = target: FLT-4 (Homo sapiens, UniProt P35916); experiment: Kinase selectivity panel by Cerep; conditions: read-out: inhibition of FLT-4
[6] = target: RET (Homo sapiens, UniProt P07949); experiment: Kinase selectivity panel by Cerep; conditions: read-out: inhibition of RET
[7] = test system: other kinases examined of the SRC family; experiment: Kinase selectivity panel by Cerep
[8] = test system: CFA induced hyperalgesia; experiment: CFA-induced inflammatory pain in rats (Randall-Selitto paw withdrawal threshold); assay type: in vivo; conditions: 3; rat, 24 h after administration
Procedure: Male Wistar rats were injected into the right hind footpad with 300 μg of Mycobacterium tuberculosis in 100 μL of liquid paraffin (Complete Freund's Adjuvant; CFA). Seventy-two hours later, compounds 2 and 26 were administered subcutaneously and 24 h after the administration, the response to noxious mechanical stimulation was assessed by measuring paw withdrawal threshold (PWT) with an analgesimeter of the Randall-Selitto type. Animals were gently restrained, and steadily increasing pressure was applied to the dorsal surface of both the ipsi-lateral (CFA-treated) and the contra-lateral paw via a dome-shaped plastic tip.
100% protection means that the animal treated with the compound and CFA can tolerate the same stimulus (weight) as the control animal which has not received CFA treatment.

[9] = target: SRC (Homo sapiens, UniProt P12931); experiment: Kinase selectivity panel by Cerep
[10] = target: BLK (Homo sapiens, UniProt P51451); experiment: Kinase selectivity panel by Cerep
[11] = 10 mg/kg daily orally, day 21 post surgery
[12] = 10 mg/kg daily orally, day 28 post surgery
[13] = 10 mg/kg daily orally, day 35 post surgery
[14] = 10 mg/kg daily orally, day 42 post surgery
[15] = 30 mg/kg daily orally, day 21 post surgery
[16] = 30 mg/kg daily orally, day 28 post surgery
[17] = 30 mg/kg daily orally, day 35 post surgery
[18] = 30 mg/kg daily orally, day 42 post surgery

Chain of FYN (P06241 whole entry): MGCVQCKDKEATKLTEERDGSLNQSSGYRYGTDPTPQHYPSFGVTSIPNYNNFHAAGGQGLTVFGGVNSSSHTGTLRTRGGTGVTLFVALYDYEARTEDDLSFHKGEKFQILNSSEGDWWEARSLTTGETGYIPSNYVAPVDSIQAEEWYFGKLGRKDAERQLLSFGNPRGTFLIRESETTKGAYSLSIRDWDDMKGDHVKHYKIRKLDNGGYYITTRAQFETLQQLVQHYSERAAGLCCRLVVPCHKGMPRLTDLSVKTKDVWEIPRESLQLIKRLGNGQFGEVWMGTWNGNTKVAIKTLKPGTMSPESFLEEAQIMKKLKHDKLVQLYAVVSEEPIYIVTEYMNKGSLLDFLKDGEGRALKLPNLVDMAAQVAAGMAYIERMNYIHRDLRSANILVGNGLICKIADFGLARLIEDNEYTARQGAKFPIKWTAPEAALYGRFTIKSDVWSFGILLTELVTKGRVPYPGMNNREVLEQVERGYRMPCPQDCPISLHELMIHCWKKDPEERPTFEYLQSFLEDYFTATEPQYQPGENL
Chain of RET (P07949 29-1114): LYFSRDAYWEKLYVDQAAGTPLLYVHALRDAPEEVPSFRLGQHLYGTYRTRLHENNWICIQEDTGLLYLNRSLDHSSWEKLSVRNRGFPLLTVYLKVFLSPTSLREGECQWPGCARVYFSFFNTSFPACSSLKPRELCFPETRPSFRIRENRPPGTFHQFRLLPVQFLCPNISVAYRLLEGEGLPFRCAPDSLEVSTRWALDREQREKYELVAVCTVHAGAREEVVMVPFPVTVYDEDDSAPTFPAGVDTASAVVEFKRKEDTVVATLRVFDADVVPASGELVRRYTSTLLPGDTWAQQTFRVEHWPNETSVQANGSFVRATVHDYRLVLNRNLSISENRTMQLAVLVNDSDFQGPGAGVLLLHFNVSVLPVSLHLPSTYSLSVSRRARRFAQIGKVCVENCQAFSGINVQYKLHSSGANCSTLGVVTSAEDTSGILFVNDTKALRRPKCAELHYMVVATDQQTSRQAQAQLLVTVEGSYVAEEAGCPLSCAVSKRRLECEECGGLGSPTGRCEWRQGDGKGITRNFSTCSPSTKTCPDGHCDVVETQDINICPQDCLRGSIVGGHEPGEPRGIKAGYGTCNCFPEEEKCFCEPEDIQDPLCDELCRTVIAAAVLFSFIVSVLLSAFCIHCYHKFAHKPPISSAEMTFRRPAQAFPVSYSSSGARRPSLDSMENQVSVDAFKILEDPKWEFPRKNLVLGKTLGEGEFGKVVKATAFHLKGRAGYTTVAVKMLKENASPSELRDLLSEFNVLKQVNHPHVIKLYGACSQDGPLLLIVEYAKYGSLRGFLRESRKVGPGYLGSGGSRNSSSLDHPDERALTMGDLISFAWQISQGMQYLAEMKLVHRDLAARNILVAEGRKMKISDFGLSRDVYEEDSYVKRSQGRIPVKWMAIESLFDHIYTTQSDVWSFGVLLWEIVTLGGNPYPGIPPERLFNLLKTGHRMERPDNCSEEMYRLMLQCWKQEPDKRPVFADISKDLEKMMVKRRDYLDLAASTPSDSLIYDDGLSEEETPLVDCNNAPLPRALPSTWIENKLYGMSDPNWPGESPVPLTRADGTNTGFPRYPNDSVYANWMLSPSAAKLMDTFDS
Chain of FLT-4 (P35916 25-1363): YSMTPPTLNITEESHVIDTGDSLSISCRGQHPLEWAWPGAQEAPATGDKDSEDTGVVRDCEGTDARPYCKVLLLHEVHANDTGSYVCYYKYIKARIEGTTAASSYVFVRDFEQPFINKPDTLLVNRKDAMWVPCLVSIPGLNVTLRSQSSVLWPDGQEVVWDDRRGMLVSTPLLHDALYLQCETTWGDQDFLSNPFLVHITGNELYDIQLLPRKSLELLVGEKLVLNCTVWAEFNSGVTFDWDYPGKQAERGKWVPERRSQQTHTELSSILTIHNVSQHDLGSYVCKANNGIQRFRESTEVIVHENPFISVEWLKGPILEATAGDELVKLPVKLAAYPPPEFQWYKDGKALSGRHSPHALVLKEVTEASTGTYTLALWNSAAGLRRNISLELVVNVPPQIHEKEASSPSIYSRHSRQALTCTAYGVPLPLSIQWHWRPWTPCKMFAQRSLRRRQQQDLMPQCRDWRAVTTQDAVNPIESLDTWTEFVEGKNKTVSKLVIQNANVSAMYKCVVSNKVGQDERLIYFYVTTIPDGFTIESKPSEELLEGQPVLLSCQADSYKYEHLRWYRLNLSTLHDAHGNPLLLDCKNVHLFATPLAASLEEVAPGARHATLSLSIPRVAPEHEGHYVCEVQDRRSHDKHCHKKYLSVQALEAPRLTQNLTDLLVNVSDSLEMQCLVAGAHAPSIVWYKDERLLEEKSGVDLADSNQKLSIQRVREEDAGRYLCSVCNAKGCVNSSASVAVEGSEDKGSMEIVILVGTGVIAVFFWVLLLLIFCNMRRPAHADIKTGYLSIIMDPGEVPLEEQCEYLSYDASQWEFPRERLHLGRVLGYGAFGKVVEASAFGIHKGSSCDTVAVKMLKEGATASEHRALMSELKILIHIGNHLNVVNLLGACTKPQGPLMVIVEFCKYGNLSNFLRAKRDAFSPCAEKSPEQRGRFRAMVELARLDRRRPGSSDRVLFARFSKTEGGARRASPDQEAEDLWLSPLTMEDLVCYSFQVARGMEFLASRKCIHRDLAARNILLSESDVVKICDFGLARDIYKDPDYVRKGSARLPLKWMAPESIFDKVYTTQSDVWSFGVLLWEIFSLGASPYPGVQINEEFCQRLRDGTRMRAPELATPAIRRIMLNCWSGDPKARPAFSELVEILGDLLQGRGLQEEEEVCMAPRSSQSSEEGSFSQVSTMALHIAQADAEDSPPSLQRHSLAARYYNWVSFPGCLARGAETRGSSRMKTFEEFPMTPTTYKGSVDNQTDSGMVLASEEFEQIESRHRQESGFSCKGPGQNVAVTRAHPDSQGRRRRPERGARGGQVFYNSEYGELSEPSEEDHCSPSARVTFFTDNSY
Chain of LCK (P06239 whole entry): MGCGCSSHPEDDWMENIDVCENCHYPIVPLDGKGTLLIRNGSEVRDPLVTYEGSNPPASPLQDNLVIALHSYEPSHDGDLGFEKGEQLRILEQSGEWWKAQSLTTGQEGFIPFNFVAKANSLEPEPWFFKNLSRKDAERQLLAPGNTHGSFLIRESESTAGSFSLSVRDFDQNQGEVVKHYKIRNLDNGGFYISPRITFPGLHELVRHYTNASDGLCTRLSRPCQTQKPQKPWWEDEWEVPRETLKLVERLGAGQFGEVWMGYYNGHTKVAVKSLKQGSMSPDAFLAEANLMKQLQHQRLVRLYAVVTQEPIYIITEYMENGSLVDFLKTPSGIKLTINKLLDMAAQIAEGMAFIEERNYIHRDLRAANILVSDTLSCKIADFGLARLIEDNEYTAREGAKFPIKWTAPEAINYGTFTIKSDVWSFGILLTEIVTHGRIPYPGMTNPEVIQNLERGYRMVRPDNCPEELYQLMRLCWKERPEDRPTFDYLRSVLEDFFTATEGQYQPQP
Chain of SRC (P12931 whole entry): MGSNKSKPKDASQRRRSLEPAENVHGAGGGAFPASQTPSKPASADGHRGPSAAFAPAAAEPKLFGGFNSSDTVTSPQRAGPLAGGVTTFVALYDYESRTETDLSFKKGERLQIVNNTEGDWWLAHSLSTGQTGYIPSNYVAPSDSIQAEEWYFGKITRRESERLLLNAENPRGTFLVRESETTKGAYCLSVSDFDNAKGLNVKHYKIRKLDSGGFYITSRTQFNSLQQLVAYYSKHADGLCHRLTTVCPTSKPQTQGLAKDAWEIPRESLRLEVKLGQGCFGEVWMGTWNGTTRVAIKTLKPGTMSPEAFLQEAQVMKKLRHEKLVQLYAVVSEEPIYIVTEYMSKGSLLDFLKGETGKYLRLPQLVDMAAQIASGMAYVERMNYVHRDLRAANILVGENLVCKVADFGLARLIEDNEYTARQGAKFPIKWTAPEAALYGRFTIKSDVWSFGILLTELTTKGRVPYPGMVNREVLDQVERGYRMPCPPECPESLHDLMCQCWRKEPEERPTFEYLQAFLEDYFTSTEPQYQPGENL
Chain of BLK (P51451 whole entry): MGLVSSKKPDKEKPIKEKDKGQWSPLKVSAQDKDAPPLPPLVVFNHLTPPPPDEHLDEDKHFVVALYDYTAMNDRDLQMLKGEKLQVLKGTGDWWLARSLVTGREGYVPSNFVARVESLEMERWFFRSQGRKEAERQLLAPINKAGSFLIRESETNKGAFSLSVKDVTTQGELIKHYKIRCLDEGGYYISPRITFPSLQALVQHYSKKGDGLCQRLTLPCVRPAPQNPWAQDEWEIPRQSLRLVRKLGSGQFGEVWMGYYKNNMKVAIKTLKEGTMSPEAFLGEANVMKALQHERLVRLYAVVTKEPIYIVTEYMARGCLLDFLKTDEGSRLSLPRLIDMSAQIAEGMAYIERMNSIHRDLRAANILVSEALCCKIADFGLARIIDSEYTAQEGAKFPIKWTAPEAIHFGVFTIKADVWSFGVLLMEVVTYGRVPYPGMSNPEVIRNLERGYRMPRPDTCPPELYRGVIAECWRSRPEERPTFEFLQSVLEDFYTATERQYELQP

O=C(Nc1ccc(CN2CCN(c3nccc(Nc4cc(C5CC5)[nH]n4)n3)CC2)cc1)c1ccccc1C(F)(F)F [Compound 2, N-(4-((4-(4-((5-cyclopropyl-1H-pyrazol-3-yl)amino)pyrimidin-2-yl)piperazin-1-yl)methyl)phenyl)-2-(trifluoromethyl)-benzamide]
IC50 [1]: 0.009 µM | IC50 [2]: 0.45 µM | Pain threshold ([3]; 10 mg/kg daily orally, day 14 post surgery): 308 g | Pain threshold [3, 11]: 333 g | Pain threshold: MPE (%) [3, 11]: 30.5% | Pain threshold [3, 12]: 323 g | Pain threshold: MPE (%) [3, 12]: 22.6% | Pain threshold [3, 13]: 313 g | Pain threshold: MPE (%) [3, 13]: 18.2% | Pain threshold [3, 14]: 298 g | Pain threshold: MPE (%) [3, 14]: 21% | Pain threshold ([3]; 30 mg/kg daily orally, day 14 post surgery): 305 g | Pain threshold [3, 15]: 358 g | Pain threshold: MPE (%) [3, 15]: 44% | Pain threshold [3, 16]: 343 g | Pain threshold: MPE (%) [3, 16]: 35.5% | Pain threshold [3, 17]: 335 g | Pain threshold: MPE (%) [3, 17]: 38.2% | Pain threshold [3, 18]: 320 g | Pain threshold: MPE (%) [3, 18]: 43% | inhibition at 0.1 µM [4]: > 50% | inhibition at 0.1 µM [5]: > 50% | inhibition at 0.1 µM [6]: > 50% | average potency ratio (other SRC family kinases vs FYN) [7]: about 100 | IC50 ([7]; read-out: IC50, all other kinases examined of the SRC family): > 0.1 µM | % protective effect vs. CFA induced hyperalgesia [8]: 100% | IC50 [9]: 0.73 µM | IC50 [10]: 0.48 µM
